# Results taken from BindingDB's records for patent US11680056 (Xinthera, 2023).
# Several values for one entry are separate records, joined by “and”; a condition that tells them apart may be missing. Identical values can stand only once.
# Target: T1, MAP kinase-activated protein kinase 2 [46-400] (Homo sapiens, UniProt P49137)
# T1 construct: 46-400
# Assay: Biochemical Assay
# Experimental: This study evaluates the inhibitory potency of invention compound on p38/MK2 pathway vs p38/PRAK pathway. More specially the compound concentration (IC50) was determined that inhibited half of the maximal activation of MK2 or PRAK by p38. MK2 activation study was set up without or with a serial of 10-point 1:3 dilution of invention compound at top dose of […], and PRAK activation study was set up without or with a serial of 10-point 1:3 dilution of invention compound at top dose of 300 μM. The MK2 and PRAK activity were determined by the phosphorylation level of HSP27 peptide conjugated with FITC. […] After 2 h incubation of the reaction mixture with various concentration of invention compound (200 nL), 60 μL 1×IMAP solution Mixture (Molecular Devices, Cat R8127) was added to the reaction mixture and incubated for another half hour. The signal was then read by Synergy Neo2 Multi-Mode Microplate Reader with filter setting (Ex/Em=485 nm/FITC FP-P pol 528 nm & FITC FP-S pol 528 nm). The signal was then normalized to vehicle control and fitted in Xfit to generate IC50. The selectivity of MK2 over PRAK was calculated by the formular Selectivity=IC50 of PRAK/IC50 of MK2.
# T1 sequence (P49137 46-400): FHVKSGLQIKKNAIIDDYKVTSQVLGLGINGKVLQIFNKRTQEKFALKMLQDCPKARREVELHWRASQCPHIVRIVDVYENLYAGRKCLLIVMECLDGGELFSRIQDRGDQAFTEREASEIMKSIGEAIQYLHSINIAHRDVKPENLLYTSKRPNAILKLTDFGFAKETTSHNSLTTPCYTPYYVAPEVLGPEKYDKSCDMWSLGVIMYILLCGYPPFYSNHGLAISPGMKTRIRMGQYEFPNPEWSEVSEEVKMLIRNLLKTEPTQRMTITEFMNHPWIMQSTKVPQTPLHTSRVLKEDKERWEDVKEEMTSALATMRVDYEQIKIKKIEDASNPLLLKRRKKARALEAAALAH
row,Structure (SMILES),IC50
1,"Cc1cnc(-n2nc(C(C)(C)O)cc2C2CC2)cc1-n1c(C)cc(OCc2ncc(F)cc2F)c(Cl)c1=O [US11680056, Example 20A]",2000 nM and > 10000 nM
2,"Cc1cnnc(COc2cc(C)n(-c3cc(-c4ccnc(C(C)(C)O)n4)ncc3C)c(=O)c2Cl)c1 [US11680056, Example 28A]",> 10000 nM
3,"Cc1nn(-c2ccnc(C(C)(C)O)n2)cc1-n1c(C)cc(OCc2ncc(F)cc2F)c(Cl)c1=O [US11680056, Example 30]",631 nM
